Several values for one entry are separate records, joined by “and”; a condition that tells them apart may be missing. Identical values can stand only once. Toxic doses and inconclusive results are not listed. How the source made its calls: active means survival T/C of 150% or more; inactive means T/C below 125% in these data.
Test system: BDF1 mice, B16 melanoma ip, median survival T/C
Assay: NCI In Vivo Anticancer Drug Screen. Data for tumor model B16 Melanoma (intraperitoneal) in B6D2F1 (BDF1) mice
Conditions: endpoint: median survival time, higher = longer survival
Method: The antitumor activity of compounds was measured in mice bearing transplantable tumors. Survival or tumor size were measured and the results are expressed as the measurement made in the treated group (T) divided by the measurement made in the vehicle treated control group (C). The tumor model used in this assay is B16 Melanoma (intraperitoneal) in B6D2F1 (BDF1) mice

[1] = dose: 100.0 mg/kg/injection, schedule: Q01DX009 (ip), vehicle: Klucel (hydroxypropylcellulose) (HPC)
[2] = dose: 200.0 mg/kg/injection, schedule: Q01DX009 (ip), vehicle: Klucel (hydroxypropylcellulose) (HPC)
[3] = dose: 400.0 mg/kg/injection, schedule: Q01DX009 (ip), vehicle: Klucel (hydroxypropylcellulose) (HPC)
[4] = dose: 25.0 mg/kg/injection, schedule: Q01DX009 (ip), vehicle: saline with Tween-80
[5] = dose: 50.0 mg/kg/injection, schedule: Q01DX009 (ip), vehicle: saline with Tween-80
[6] = dose: 100.0 mg/kg/injection, schedule: Q01DX009 (ip), vehicle: saline with Tween-80
[7] = dose: 100.0 mg/kg/injection, schedule: Q04DX003 (ip), vehicle: saline with Tween-80
[8] = dose: 25.0 mg/kg/injection, schedule: Q01DX009 (ip), vehicle: saline
[9] = dose: 50.0 mg/kg/injection, schedule: Q01DX009 (ip), vehicle: saline
[10] = dose: 100.0 mg/kg/injection, schedule: Q01DX009 (ip), vehicle: saline
[11] = dose: 50.0 mg/kg/injection, schedule: Q01DX009 (ip), vehicle: Klucel (hydroxypropylcellulose) (HPC)
[12] = dose: 100.0 mg/kg/injection, schedule: Q04DX003 (ip), vehicle: Klucel (hydroxypropylcellulose) (HPC)
[13] = dose: 12.5 mg/kg/injection, schedule: Q04DX003 (ip), vehicle: Klucel (hydroxypropylcellulose) (HPC)
[14] = dose: 25.0 mg/kg/injection, schedule: Q04DX003 (ip), vehicle: Klucel (hydroxypropylcellulose) (HPC)
[15] = dose: 50.0 mg/kg/injection, schedule: Q04DX003 (ip), vehicle: Klucel (hydroxypropylcellulose) (HPC)
[16] = dose: 1.0 mg/kg/injection, schedule: Q01DX009 (ip), vehicle: Klucel (hydroxypropylcellulose) (HPC)
[17] = dose: 2.0 mg/kg/injection, schedule: Q01DX009 (ip), vehicle: Klucel (hydroxypropylcellulose) (HPC)

Measured: T/C

CCC(=O)c1cc([N+](=O)[O-])ccc1NC(C)=O
inactive: [1] 101 % of control | [2] 107 % of control | [3] 109 % of control

Cc1cc(O)c(C)c(C)c1Cl
inactive: [4] 100 % of control | [5] 97 % of control | dose: 50.0 mg/kg/injection, schedule: Q04DX003 (ip), vehicle: saline with Tween-80 92 % of control | [6] 97 % of control | [7] 95 % of control

O=C1NC2(CCCCC2)NC12CCCCC2
inactive: [8] 102 % of control | [9] 97 % of control | [10] 97 % of control | dose: 150.0 mg/kg/injection, schedule: Q01DX009 (ip), vehicle: saline 94 % of control | dose: 225.0 mg/kg/injection, schedule: Q01DX009 (ip), vehicle: saline 86 % of control

CCN(C(=O)c1cccc(C(=O)N(CC)c2ccccc2C)c1)c1ccccc1C
inactive: [11] 101 % of control | [1] 98 % of control | [2] 102 % of control

O=C(O)CC(NC(=O)c1ccccc1)C(=O)O (stereo unspecified)
inactive: dose: 6.25 mg/kg/injection, schedule: Q01DX009 (ip), vehicle: saline with Tween-80 100 % of control | dose: 12.5 mg/kg/injection, schedule: Q01DX009 (ip), vehicle: saline with Tween-80 102 % of control | [4] 109 % of control | [5] 93 % of control and 100 % of control

CCCCCCC(=O)CC(C)C
inactive: [1] 93 % of control | [2] 90 % of control | [3] 86 % of control

CCCN(CCC)CC(C)=O
inactive: [12] 107 % of control | dose: 200.0 mg/kg/injection, schedule: Q04DX003 (ip), vehicle: Klucel (hydroxypropylcellulose) (HPC) 97 % of control

C1CC[N-]CC1.C1CC[N-]CC1.O=C(O)C(=O)O.[Pt+2]
inactive: dose: 6.25 mg/kg/injection, schedule: Q04DX003 (ip), vehicle: Klucel (hydroxypropylcellulose) (HPC) 100 % of control | [13] 120 % of control | [14] 119 % of control | [15] 115 % of control | [12] 113 % of control

CS(=O)(=O)OCCN(CCOS(C)(=O)=O)c1ccc(C=Nc2ccc3oc(=O)ccc3c2)cc1
inactive: dose: 6.25 mg/kg/injection, schedule: Q01DX009 (ip), vehicle: Klucel (hydroxypropylcellulose) (HPC) 120 % of control | dose: 12.5 mg/kg/injection, schedule: Q01DX009 (ip), vehicle: Klucel (hydroxypropylcellulose) (HPC) 118 % of control | [11] 118 % of control

COC(=O)NC1CC=CCC1I (stereo unspecified)
inactive: dose: 12.5 mg/kg/injection, schedule: Q01DX009 (ip), vehicle: saline + alcohol 109 % of control | dose: 25.0 mg/kg/injection, schedule: Q01DX009 (ip), vehicle: saline + alcohol 97 % of control | dose: 50.0 mg/kg/injection, schedule: Q01DX009 (ip), vehicle: saline + alcohol 88 % of control

NC(Cc1cc([N+](=O)[O-])ccc1CN(CCCl)CCCl)C(=O)O (stereo unspecified)
active: [16] 178 % of control | dose: 1.88 mg/kg/injection, schedule: Q04DX003 (ip), vehicle: Klucel (hydroxypropylcellulose) (HPC) 158 % of control | [17] 193 % of control | dose: 3.12 mg/kg/injection, schedule: Q01DX001 (ip), vehicle: Klucel (hydroxypropylcellulose) (HPC) 164 % of control | dose: 3.78 mg/kg/injection, schedule: Q04DX003 (ip), vehicle: Klucel (hydroxypropylcellulose) (HPC) 173 % of control | dose: 4.0 mg/kg/injection, schedule: Q01DX009 (ip), vehicle: Klucel (hydroxypropylcellulose) (HPC) 240 % of control | dose: 6.25 mg/kg/injection, schedule: Q01DX001 (ip), vehicle: Klucel (hydroxypropylcellulose) (HPC) 170 % of control | dose: 7.5 mg/kg/injection, schedule: Q04DX003 (ip), vehicle: Klucel (hydroxypropylcellulose) (HPC) 185 % of control | dose: 8.0 mg/kg/injection, schedule: Q01DX009 (ip), vehicle: Klucel (hydroxypropylcellulose) (HPC) 261 % of control | dose: 12.5 mg/kg/injection, schedule: Q01DX001 (ip), vehicle: Klucel (hydroxypropylcellulose) (HPC) 186 % of control | dose: 15.0 mg/kg/injection, schedule: Q04DX003 (ip), vehicle: Klucel (hydroxypropylcellulose) (HPC) 164 % of control

O=C(Nc1cccc(Cl)c1)Nc1cc(Cl)ccc1Cl
inactive: [6] 100 % of control | dose: 200.0 mg/kg/injection, schedule: Q01DX009 (ip), vehicle: saline with Tween-80 89 % of control | dose: 400.0 mg/kg/injection, schedule: Q01DX009 (ip), vehicle: saline with Tween-80 86 % of control

Nc1ncnc2c1c1c(N)[nH]nc1n2C1OC(CO)C(O)C1O (stereo unspecified)
inactive: [8] 110 % of control | [9] 106 % of control | [10] 95 % of control

CCOC(=O)c1ccc(NC(=O)NC)cc1
inactive: [7] 93 % of control | dose: 200.0 mg/kg/injection, schedule: Q04DX003 (ip), vehicle: saline with Tween-80 86 % of control | dose: 400.0 mg/kg/injection, schedule: Q04DX003 (ip), vehicle: saline with Tween-80 86 % of control

COc1cc(C=Nc2ccc(-n3ccnc3C)cc2)ccc1N(CCCl)CCCl
inactive: dose: 2.5 mg/kg/injection, schedule: Q01DX009 (ip), vehicle: Klucel (hydroxypropylcellulose) (HPC) 105 % of control

C(=N\OCc1ccccc1)/c1ccccn1
inactive: [1] 101 % of control | [2] 101 % of control | [3] 97 % of control

CC1(C)CCSC(/C=C/c2ccccc2)=N1
inactive: [11] 96 % of control | [1] 94 % of control | [2] 91 % of control

CN1c2c(nc(N)[nH]c2=O)NCC1CCNc1ccc(C(=O)NC(CCC(=O)O)C(=O)O)cc1 (stereo unspecified)
inactive: dose: 25.0 mg/kg/injection, schedule: Q01DX009 (ip), vehicle: Klucel (hydroxypropylcellulose) (HPC) 106 % of control | [11] 103 % of control | dose: 50.0 mg/kg/injection, schedule: Q01DX009 (ip), vehicle: sodium bicarbonate 100 % of control | [1] 106 % of control | dose: 100.0 mg/kg/injection, schedule: Q01DX009 (ip), vehicle: sodium bicarbonate 100 % of control | dose: 200.0 mg/kg/injection, schedule: Q01DX009 (ip), vehicle: sodium bicarbonate 95 % of control | dose: 400.0 mg/kg/injection, schedule: Q01DX009 (ip), vehicle: sodium bicarbonate 118 % of control

COc1cc(C2N(c3ccccc3)CCN2c2ccccc2)cc(OC)c1OC
inactive: [1] 106 % of control | [2] 103 % of control | [3] 96 % of control

CCCC(=O)O.CCCC(=O)O.CCCC(=O)O.CCCC(=O)O.[Rh].[Rh]
inactive: dose: 46.7 micrograms/kg/injection, schedule: Q08HX018 (ip), vehicle: saline + alcohol 98 % of control | dose: 77.8 micrograms/kg/injection, schedule: Q08HX018 (ip), vehicle: saline + alcohol 97 % of control | dose: 93.3 micrograms/kg/injection, schedule: Q01DX009 (ip), vehicle: saline + alcohol 98 % of control | dose: 156.0 micrograms/kg/injection, schedule: Q01DX009 (ip), vehicle: saline + alcohol 98 % of control | dose: 216.0 micrograms/kg/injection, schedule: Q08HX018 (ip), vehicle: saline + alcohol 88 % of control | dose: 259.0 micrograms/kg/injection, schedule: Q01DX009 (ip), vehicle: saline + alcohol 102 % of control

CN(C(=N)N)c1ccc(C(=O)Oc2ccc([N+](=O)[O-])cc2)cc1
inactive: [11] 104 % of control | [1] 101 % of control | [2] 103 % of control

CC(O)c1ccc[n+](CCc2cn(C)c3ccccc23)c1 (stereo unspecified)
inactive: dose: 6.25 mg/kg/injection, schedule: Q01DX009 (ip), vehicle: saline 107 % of control | dose: 12.5 mg/kg/injection, schedule: Q01DX009 (ip), vehicle: saline 113 % of control | [8] 104 % of control

C=C1C(=O)OC2CC3(C)CC(O)C(O)C(=C)C3CC12 (stereo unspecified)
inactive: [11] 104 % of control | [1] 101 % of control

COc1cc(OC)c2c(O)c3c(c(-c4ccc5cc6c(c(O)c5c4O)C(=O)CC(C)(O)C6)c2c1)CC(C)OC3C (stereo unspecified)
inactive: dose: 0.5 mg/kg/injection, schedule: Q01DX009 (ip), vehicle: Klucel (hydroxypropylcellulose) (HPC) 94 % of control | [16] 102 % of control | [17] 111 % of control

C=CCOCC(O)CN(CCC(C)C)CCC(C)C (stereo unspecified)
inactive: [13] 91 % of control | [14] 91 % of control | [15] 95 % of control

Cc1cccc(NC(=O)c2cccc(C(=O)Nc3cccc(C)c3C)c2)c1C
inactive: [1] 100 % of control | [2] 90 % of control | [3] 86 % of control

Reference: PubChem BioAssay AID192 (DTP/NCI, 2004)
